Test results published in patent publication US20040242568A1, “Dipeptidyl peptidase inhibitors” (Syrrx, Inc., priority 2003, published 2004).

Assay: Microsomal stability in rat liver microsomes
Conditions: Rat liver microsomes 1 mg/mL protein, 1 μM compound, 37° C., NADPH 4 mM
Procedure: Several compounds were evaluated for stability in rat liver microsomes.
The test compounds (1 μM) were incubated at 37° C. in phosphate buffer (50 mM, pH 7.4) containing rat liver microsomes (1 mg/mL protein) and NADPH (Nicotinamide Adenine Dinucleotide Phosphate, reduced form) (4 mM). The incubation mixtures were quenched with trichloroacetic acid (0.3 M) over 0, 5, 15, 30 min time-course. Quenched solutions were centrifuged and supernatants were transferred for LC/MS quantitation. The half life of a test compounds was derived from the compound stability curve over the time course.

COc1cc2nc(N3CCCC(N)C3)n(Cc3ccccc3C#N)c(=O)c2cc1OC (stereo not drawn) [Example 2, 2-[2-(3-Amino-piperidin-1-yl)-6,7-dimethoxy-4-oxo-4H-quinazolin-3-ylmethyl]-benzonitrile]
T1/2: 106.6 min

N#Cc1ccccc1Cn1c(N2CCCC(N)C2)nc2ccc(F)cc2c1=O (stereo not drawn) [Example 6, 2-[2-(3-Amino-piperidin-1-yl)-6-fluoro-4-oxo-4H-quinazolin-3-ylmethyl]-benzonitrile]
T1/2: 31 min

N#Cc1ccccc1Cn1c(N2CCCC(N)C2)nc2ccccc2c1=O (stereo not drawn) [Example 1, 2-[2-(3-Amino-piperidin-1-yl)-4-oxo-4H-quinazolin-3-ylmethyl]-benzonitrile]
T1/2: 2.5 min
